# Measurements: patent publication US20080200538A1, “Inhibition of Monocyte Survival, Differentiation, or Proliferation” (The Ohio State University Research Foundation, priority 2005, published 2008)
# How the values were obtained:
# caspase-3 = assay: Caspase-3 activity, DEVD-AFC assay, THP-1 lysates; assay type: cell-based, human
# Method: FIG. 3. Apigenin induces caspase activation in monocytic leukemia. THP-1 (top) and U937 (bottom) leukemia cells were treated for various lengths of time with 50 μM apigenin or DMSO (NT). (A and C) Caspase-9 activity was determined by the LEHDAFC assay. (B and D) Caspase-3 activity was determined by the DEVD-AFC assay. Data represents means ±SEM (N=3).
# (§1) FIG. 4. Caspase-3 activation is required for apigenin-induced apoptosis. THP-1 cells were treated for 12 h with 50 μM apigenin alone or pretreated with 20 μM DEVD-FMK for 1 h prior to the addition of apigenin. (A) Cells were then stained with calcein AM and 24 PI and the percentage of apoptotic cells was determined. (B) Lysates from cells treated as described above were used to determined caspase-3 activity by the DEVD-AFC assay. All data represents means ±SEM (N=5).
# (§2) FIG. 7. Apigenin induced p38 activation is not required for apoptosis. A. Cells were pretreated for 1 h prior to addition of 50 μM apigenin or DMSO (−) with 10 or 25 μM concentrations of SB203580 or DMSO (−) for 12 h. The percentage of apoptotic cells was determined by calcein AM with PI stained cells. Data represents means ±SEM (N=5 p>0.05). B. Lysates from the same treatments were used to determined caspase-3 activity by the DEVD-AFC assay. Data represents means ±SEM (N=5 p>0.05).
# For measurements of caspase activity, cells were plated at a density of 1.5×10^6 cells/well. After treatment, cells extracts were prepared as previously described (Doseff, A. I., Baker J. H., Bourgeois T. A. and Wewers M. D. (2003) Interleukin-4-induced zpoptosis entails caspase activation and suppression of extracellular signal-regulated kinase phosphorylation. Am. J. Resp. Cell Mol. Biol., 29, 367-374). […] Levels of released AFC were measured using Cytofluor 400 fluorimeter (Filters: excitation 400 nm, emission 508 nm; Perspective Co., Framingham, Mass.).
# THP-1 cells [1] = assay: Cell survival and apoptosis by calcein AM/PI staining; assay type: cell-based, human
# Method: FIG. 2. Apigenin induces cell death in monocytic leukemia cells. THP-1 and U937 leukemia cells were treated for various lengths of time with 50 μM apigenin or left untreated (NT) and stained with calcein AM and PI as described in Material and Methods to evaluate the percentage of cell survival. (A) THP cells after 12 h cells treated with 50 μM apigenin or with DMSO (NT). (B) The percentage of cell survival represented by means ±SEM (N=3).
# as §1, §2
# To investigate apoptosis, cells were plated at a density of 1×10^6 cells/well. After treatment, cells were collected and washed in PBS. Cells were then incubated in RPMI (no phenol red) and 1 μg/ml calcein AM for 30 min and 5×10−2 ng/ml propidium iodide (PI) for 5 min. Cells were washed twice and resuspended in PBS. Cells were viewed using a fluorescent microscope (Olympus, Melville, N.Y.). At least 200 cells were counted. Cells calcein AM positive (green) in the absence of PI (red) were considered alive while cells undergoing apoptosis are green with red. Number of green cells or green with red cells was counted over total number of cells (green alone and green with red) to express cell survival or apoptotic cell percentage respectively.
# p38 = assay: Western blot of p38 phosphorylation in THP-1 cells; assay type: cell-based, human; details: THP-1, 10 or 25 μM SB203580 1 h prior to 50 μM apigenin for 3 h
# Method: A. THP-1 cells were treated with 50 μM apigenin for various lengths of time. Lysates were separated by SDS-PAGE, transferred and analyzed by immunoblots with anti-phospho-p38 (pp 38) and anti-total-p38 antibodies. B. THP-1 cells were treated for 6 hr with 50 μM apigenin alone (lane 2), treated with the apigenin diluent (lane 1), pretreatred with 10 or 25 μM SB203580 for 1 hr prior to the addition of apigenin (lanes 3 and 4) or with the SB203580 inhibitor alone (lanes 5 and 6).
# Extracts from 3×10^6 cells were prepared by incubating cells for 30 min on ice in lysis buffer (50 mM Tris, 10 mM EDTA 0.5% NP-40, 10 mM Na-glycerophosphate, 5 mM Na-pyrophosphate, 50 mM NaF, 1 mM orthovanadate, 1 mM DTT, 0.1 mM PMSF, 2 μg/ml of protease inhibitors: chymostatin, pepstatin, antipain, and leupeptin). Cell lysates were centrifuged (14,000×g for 10 min at 4° C.) and the supernatants were stored for at −70° C. for future analysis. Equal amounts of protein were loaded and separated by SDS-PAGE, transferred onto nitrocellulose membranes and probed with antibodies of interest followed by horseradish peroxidase conjugated secondary antibody and visualized by enhanced chemiluminescence (Amersham, Arlington Heights, Ill.). […]
# Akt = assay: Western blot of Akt phosphorylation and total Akt in THP-1 cells; assay type: cell-based, human; details: THP-1, 10 or 25 μM SB203580 1 h prior to 50 μM apigenin for 3 h
# Method: FIG. 5. Apigenin affects Akt phosphorylation. THP-1 cells were treated with 50 μM apigenin for different lengths of time. Lysates were separated by SDS-PAGE, transferred and immunoblotted with anti-phospho-Akt (pSer 473), anti-phospho-Akt (pThr 308), total Akt, and â-tubulin antibodies.
# FIG. 6. Apigenin induces the activation of p38 and inactivation of Akt. A. THP-1 cells were treated with 50 μM apigenin for various lengths of time. Lysates were separated by SDS-PAGE, transferred and analyzed by immunoblots with anti-phospho-p38 (pp 38) and anti-total-p38 antibodies. B. […] Lysates were analyzed by immunoblotting with anti-phospho-Akt (pSer 473), anti-phospho-p38 (p-p38), and anti-total-p38 antibodies.
# Extracts from 3×10^6 cells were prepared by incubating cells for 30 min on ice in lysis buffer (50 mM Tris, 10 mM EDTA 0.5% NP-40, 10 mM Na-glycerophosphate, 5 mM Na-pyrophosphate, 50 mM NaF, 1 mM orthovanadate, 1 mM DTT, 0.1 mM PMSF, 2 μg/ml of protease inhibitors: chymostatin, pepstatin, antipain, and leupeptin). Cell lysates were centrifuged (14,000×g for 10 min at 4° C.) and the supernatants were stored for at −70° C. for future analysis. Equal amounts of protein were loaded and separated by SDS-PAGE, transferred onto nitrocellulose membranes and probed with antibodies of interest followed by horseradish peroxidase conjugated secondary antibody and visualized by enhanced chemiluminescence (Amersham, Arlington Heights, Ill.). Phospho-Ser473-Akt, phospho-Thr308-Alt, total AKT, phospho-p38 and total p38 antibodies were obtained from Cell Signaling (Boston, Mass.). â-tubulin antibody was obtained from Upstate (Charlottesville, Va.).
# THP-1 cells [2] = assay: Cell viability assay (CellTiter 96 / MTT, A490); assay type: cell-based, human; details: THP-1, 500 μM naringenin, 24 h; reduced to
# Method: (§3) FIG. 1. Effect of apigenin and naringenin in cell survival of cancer cells. (A) Structure of the flavonoids apigenin and naringenin. (B) THP-1, U937, A549, and MCF-7 cells were treated with various doses of apigenin or naringenin for 24 h. After the treatment, the percentage of cell proliferation was calculated as the ratio of treated cells to control cells as determined by the MTT method (A490). Data represents means ±SEM (N=9). […] Cells were plated at a density of 2×10^4 cells/well into 96-well plates and treated with flavonoids at indicated concentrations for 24 h. Absorbance at 490 nm (A490) was recorded using an ELISA plate reader (Bio-Tek ELx800, KC Junior, Winooski, Vt.).
# U937 cells = assay: Cell viability assay (CellTiter 96 / MTT, A490); assay type: cell-based, human; details: U937, 500 μM naringenin, 24 h; reduced to
# Method: as §3
# MCF-7 cells = assay: Cell viability assay (CellTiter 96 / MTT, A490); assay type: cell-based; details: MCF-7, up to 500 μM naringenin, 24 h; reduced by
# Method: as §3
# A549 cells = assay: Cell viability assay (CellTiter 96 / MTT, A490); assay type: cell-based; details: A549, up to 500 μM naringenin, 24 h; reduced by
# Method: as §3
# THP-1 cells [3] = tested on: THP-1 cells
# [4] = THP-1, 20 μM DEVD-FMK 1 h prior to 50 μM apigenin for 12 h
compound,measurement,setting,value
"C[S+]([O-])c1ccc(-c2nc(-c3ccncc3)c(-c3ccc(F)cc3)[nH]2)cc1 (centres unmarked) [SB203580, reference compound]",caspase-3 activity,"caspase-3; THP-1, SB203580 and 50 μM apigenin vs apigenin alone, P>0.05",similar
same,number of apoptotic cells induced by apigenin,"THP-1 cells [1]; THP-1, SB203580 (10 or 25 μM) 1 h prior to 50 μM apigenin, 12 h, vs apigenin alone, P>0.05",did not result in a reduction
same,apigenin-induced p38 phosphorylation,p38,significantly reduced
same,Akt phosphorylation at Ser473,Akt,increase
"O=C1C[C@@H](c2ccc(O)cc2)Oc2cc(O)cc(O)c21 [naringenin, reference compound]",cell proliferation (ratio of treated to control cells),THP-1 cells [2],60%
same,cell proliferation (ratio of treated to control cells),U937 cells,60%
same,reduction of cell proliferation,MCF-7 cells,20%
same,reduction of cell proliferation,A549 cells,20%
same,conversion to another chemical entity in treated cells,THP-1 cells [3],neither one of these two compounds is significantly converted
DEVD-FMK: caspase-3 inhibitor obtained from Enzyme System Products [reference compound],effect on apigenin-induced caspase-3 activity,caspase-3; [4],inhibited the apigenin-induced activation of caspase-3 to the levels observed in untreated cells
same,apoptotic cells,THP-1 cells [1]; [4],< 10%
